Assay results: patent US8410112B2, “Compounds useful as inhibitors of ATR kinase” (Vertex Pharmaceuticals Incorporated, priority 2008, dated 2013)

Target: T1, full-length ATR (Homo sapiens, UniProt Q13535)
T1 construct: in the presence of 5 nM full-length ATR
Experiment: ATR Inhibition Assay (radioactive-phosphate incorporation)
Assay type: biochemical
Settings: Ki(app); 5 nM full-length ATR, 10 μM ATP, 800 μM target peptide, 25° C.
Summary of the method: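 Buffer was 50 mM Tris/HCl pH 7.5, 10 mM MgCl2, 1 mM DTT, with 5 nM enzyme, 10 μM [γ-33P]ATP and 800 μM target peptide at 25 °C. Compound was pre-incubated 10 min before ATP start, and the reaction was stopped after 24 h. Phosphocellulose filter capture; Ki(app) came from non-linear regression of background-corrected initial rates.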

T1 sequence (Q13535 whole entry): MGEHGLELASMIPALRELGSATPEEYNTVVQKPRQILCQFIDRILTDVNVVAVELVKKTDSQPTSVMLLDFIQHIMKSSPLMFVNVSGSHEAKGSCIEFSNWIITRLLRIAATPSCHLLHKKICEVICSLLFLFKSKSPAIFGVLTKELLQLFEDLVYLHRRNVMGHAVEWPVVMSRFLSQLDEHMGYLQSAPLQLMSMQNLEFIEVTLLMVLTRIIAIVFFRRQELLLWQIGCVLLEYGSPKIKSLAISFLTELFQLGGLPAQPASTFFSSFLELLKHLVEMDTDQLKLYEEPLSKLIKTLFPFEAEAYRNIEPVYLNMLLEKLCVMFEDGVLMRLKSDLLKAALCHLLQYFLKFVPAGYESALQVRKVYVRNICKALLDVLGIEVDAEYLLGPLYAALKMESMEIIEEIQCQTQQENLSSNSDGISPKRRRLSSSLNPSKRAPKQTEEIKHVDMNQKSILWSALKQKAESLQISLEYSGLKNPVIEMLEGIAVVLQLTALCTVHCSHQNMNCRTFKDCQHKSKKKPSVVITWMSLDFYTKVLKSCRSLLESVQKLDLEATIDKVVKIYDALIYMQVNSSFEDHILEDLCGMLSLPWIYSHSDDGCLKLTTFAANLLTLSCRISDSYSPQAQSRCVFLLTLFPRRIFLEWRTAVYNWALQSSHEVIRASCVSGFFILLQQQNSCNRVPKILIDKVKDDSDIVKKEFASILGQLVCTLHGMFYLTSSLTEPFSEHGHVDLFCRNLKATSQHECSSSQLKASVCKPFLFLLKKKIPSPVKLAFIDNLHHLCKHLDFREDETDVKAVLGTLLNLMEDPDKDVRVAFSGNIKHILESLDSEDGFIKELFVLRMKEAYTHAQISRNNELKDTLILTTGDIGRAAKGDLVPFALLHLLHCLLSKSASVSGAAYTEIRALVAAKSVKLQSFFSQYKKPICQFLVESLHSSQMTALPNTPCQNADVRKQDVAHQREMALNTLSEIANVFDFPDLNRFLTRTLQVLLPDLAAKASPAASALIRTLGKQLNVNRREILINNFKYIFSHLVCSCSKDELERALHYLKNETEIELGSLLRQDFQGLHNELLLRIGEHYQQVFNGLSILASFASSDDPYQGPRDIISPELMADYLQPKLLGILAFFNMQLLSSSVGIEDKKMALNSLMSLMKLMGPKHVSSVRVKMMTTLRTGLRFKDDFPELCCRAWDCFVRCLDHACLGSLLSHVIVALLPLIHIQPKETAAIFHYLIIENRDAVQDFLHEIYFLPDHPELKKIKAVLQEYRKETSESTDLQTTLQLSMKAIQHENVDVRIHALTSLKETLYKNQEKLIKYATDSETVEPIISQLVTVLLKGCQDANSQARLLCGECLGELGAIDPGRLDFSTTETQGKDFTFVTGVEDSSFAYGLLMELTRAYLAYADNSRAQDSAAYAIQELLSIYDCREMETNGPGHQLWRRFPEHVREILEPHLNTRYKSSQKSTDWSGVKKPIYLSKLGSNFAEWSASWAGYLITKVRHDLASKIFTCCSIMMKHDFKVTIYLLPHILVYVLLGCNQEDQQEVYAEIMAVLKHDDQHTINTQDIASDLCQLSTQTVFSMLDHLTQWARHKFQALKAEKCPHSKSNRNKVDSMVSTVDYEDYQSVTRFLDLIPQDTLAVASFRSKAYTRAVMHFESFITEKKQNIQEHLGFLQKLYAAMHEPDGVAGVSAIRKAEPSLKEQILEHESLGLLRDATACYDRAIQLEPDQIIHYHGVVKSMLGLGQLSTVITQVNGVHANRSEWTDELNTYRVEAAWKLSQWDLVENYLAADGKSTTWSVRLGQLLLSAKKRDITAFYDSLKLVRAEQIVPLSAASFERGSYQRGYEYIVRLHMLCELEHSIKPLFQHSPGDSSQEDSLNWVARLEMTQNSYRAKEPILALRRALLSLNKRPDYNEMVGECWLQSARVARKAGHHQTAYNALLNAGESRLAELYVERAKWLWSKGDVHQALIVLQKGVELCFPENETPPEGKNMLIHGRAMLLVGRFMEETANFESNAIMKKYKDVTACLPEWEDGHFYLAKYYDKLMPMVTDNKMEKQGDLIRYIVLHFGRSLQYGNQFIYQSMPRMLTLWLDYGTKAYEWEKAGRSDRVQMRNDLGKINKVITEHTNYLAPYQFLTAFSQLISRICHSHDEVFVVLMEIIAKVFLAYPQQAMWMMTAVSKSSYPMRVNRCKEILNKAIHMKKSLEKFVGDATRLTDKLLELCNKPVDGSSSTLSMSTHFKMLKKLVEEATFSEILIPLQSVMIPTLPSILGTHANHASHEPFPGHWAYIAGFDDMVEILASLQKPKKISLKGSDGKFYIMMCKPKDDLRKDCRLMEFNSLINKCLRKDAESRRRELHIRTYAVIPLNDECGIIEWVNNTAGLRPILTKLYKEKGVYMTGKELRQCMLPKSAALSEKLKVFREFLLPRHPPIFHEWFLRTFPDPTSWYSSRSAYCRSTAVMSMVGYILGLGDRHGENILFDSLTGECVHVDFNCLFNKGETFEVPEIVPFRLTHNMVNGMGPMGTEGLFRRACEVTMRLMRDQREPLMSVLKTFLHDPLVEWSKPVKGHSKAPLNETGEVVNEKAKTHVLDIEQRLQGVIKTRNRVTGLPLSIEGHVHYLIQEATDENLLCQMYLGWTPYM

SMILES	Ki [µM]
CCS(=O)(=O)N1CCN(c2cnc(N)c(-c3nc4ccccc4[nH]3)n2)CC1 [Compound I-16, 3-(1H-benzo[d]imidazol-2-yl)-5-(4-(ethylsulfonyl)piperazin-1-yl)pyrazin-2-amine]	0.1 to 1
Nc1ncc(N2CCNCC2)nc1C(=O)Nc1ccccn1 [Compound I-42, 3-amino-6-(piperazin-1-yl)-N-(pyridin-2-yl)pyrazine-2-carboxamide]	1 to 10
CC(C)(C)OC(=O)N1CC=C(c2cnc(N)c(-c3noc(-c4ccccc4)n3)n2)CC1 [Compound I-163, Tert-butyl 4-(5-amino-6-(5-phenyl-1,2,4-oxadiazol-3-yl)pyrazin-2-yl)-5,6-dihydropyridine-1(2H)-carboxylate]	0.1 to 1
CCS(=O)(=O)N1CCN(c2cnc(N)c(-c3cn(-c4ccc(N)cc4)nn3)n2)CC1 [Compound I-160, 3-(1-(4-aminophenyl)-1H-1,2,3-triazol-4-yl)-5-(4-(ethylsulfonyl)piperazin-1-yl)pyrazin-2-amine]	0.1 to 1
Cc1ccc2nc(-c3nc(N4CCN(c5cccc(F)c5)CC4)cnc3N)[nH]c2c1 [Compound I-47, 5-(4-(3-fluorophenyl)piperazin-1-yl)-3-(6-methyl-1H-benzo[d]imidazol-2-yl)pyrazin-2-amine]	1 to 10
CC(=O)NC1CCN(c2cnc(N)c(-c3nc4ccc(C)cc4[nH]3)n2)CC1 [Compound I-43, N-(1-(5-amino-6-(6-methyl-1H-benzo[d]imidazol-2-yl)pyrazin-2-yl)piperidin-4-yl)ethanamide]	0.1 to 1
CCS(=O)(=O)N1CCN(c2cnc(N)c(C(=O)Nc3ccccc3)n2)CC1 [Compound I-20, 3-amino-6-(4-(ethylsulfonyl)piperazin-1-yl)-N-phenylpyrazine-2-carboxamide]	0.1 to 1
Cn1cnc(S(=O)(=O)N2CCN(c3cnc(N)c(-c4nnc(-c5ccccc5)o4)n3)CC2)c1 [Compound I-87, 5-(4-(1-methyl-1H-imidazol-4-ylsulfonyl)piperazin-1-yl)-3-(5-phenyl-1,3,4-oxadiazol-2-yl)pyrazin-2-amine]	0.1 to 1
Cc1ccc2nc(-c3nc(C4=CCC5(CC4)OCCO5)cnc3N)[nH]c2c1 [Compound I-22, 3-(6-methyl-1H-benzo[d]imidazol-2-yl)-5-(1,4-dioxaspiro[4.5]dec-7-en-8-yl)pyrazin-2-amine]	0.1 to 1
CC(=O)N1CCN(c2cnc(N)c(C(=O)Nc3ccccn3)n2)CC1 [Compound I-142, 3-amino-6-(4-ethanoylpiperazin-1-yl)-N-(pyridin-2-yl)pyrazine-2-carboxamide]	1 to 10
Nc1ncc(N2CCN(C(=O)C3CCCC3)CC2)nc1-c1nnc(-c2ccccc2)o1 [Compound I-194, (4-(5-amino-6-(5-phenyl-1,3,4-oxadiazol-2-yl)pyrazin-2-yl)piperazin-1-yl)(cyclopentyl)methanone]	0.1 to 1
CC(C)(C)C(=O)N1CC=C(c2cnc(N)c(-c3nc4ccccc4[nH]3)n2)CC1 [Compound I-214, 1-(4-(5-amino-6-(1H-benzo[d]imidazol-2-yl)pyrazin-2-yl)-5,6-dihydropyridin-1(2H)-yl)-2,2-dimethylpropan-1-one]	0.1 to 1
COc1cccc(N2CCN(c3cnc(N)c(-c4nc5ccc(C)cc5[nH]4)n3)CC2)c1 [Compound I-48, 5-(4-(3-methoxyphenyl)piperazin-1-yl)-3-(6-methyl-1H-benzo[d]imidazol-2-yl)pyrazin-2-amine]	0.1 to 1
CC(=O)N[C@H]1CCN(c2cnc(N)c(-c3nc4ccccc4[nH]3)n2)C1 [Compound I-185, (S)-N-(1-(5-amino-6-(1H-benzo[d]imidazol-2-yl)pyrazin-2-yl)pyrrolidin-3-yl)ethanamide]	0.1 to 1
Cc1ccc2nc(-c3nc(N4CCSCC4)cnc3N)[nH]c2c1 [Compound I-8, 3-(6-methyl-1H-benzo[d]imidazol-2-yl)-5-thiomorpholinopyrazin-2-amine]	0.1 to 1
CCS(=O)(=O)N1CCN(c2cnc(N)c(-c3noc(C)n3)n2)CC1 [Compound I-38, 5-(4-(ethylsulfonyl)piperazin-1-yl)-3-(5-methyl-1,2,4-oxadiazol-3-yl)pyrazin-2-amine]	1 to 10
CC(C)C(=O)N1CCN(c2cnc(N)c(-c3nc4ccccc4[nH]3)n2)CC1 [Compound I-199, 1-(4-(5-amino-6-(1H-benzo[d]imidazol-2-yl)pyrazin-2-yl)piperazin-1-yl)-2-methylpropan-1-one]	1 to 10

More lines, now with the values ahead:

Ki [µM]	SMILES
< 0.1	CN(C)C(=O)N1CC=C(c2cnc(N)c(-c3nnc(-c4ccccc4)o3)n2)CC1 [Compound I-220, 4-(5-amino-6-(5-phenyl-1,3,4-oxadiazol-2-yl)pyrazin-2-yl)-N,N-dimethyl-5,6-dihydropyridine-1(2H)-carboxamide]
< 0.1	Nc1ncc(C2=CCN(C(=O)N3CCCC3)CC2)nc1-c1nnc(-c2ccccc2)o1 [Compound I-226, (4-(5-amino-6-(5-phenyl-1,3,4-oxadiazol-2-yl)pyrazin-2-yl)-5,6-dihydropyridin-1(2H)-yl)(pyrrolidin-1-yl)methanone]
0.1 to 1	Nc1ncc(N2CC=C(c3nccs3)CC2)nc1-c1nnc(-c2ccccc2)o1 [Compound I-290, 3-(5-phenyl-1,3,4-oxadiazol-2-yl)-5-(4-thiazol-2-yl-3,6-dihydro-2H-pyridin-1-yl)pyrazin-2-amine]
0.1 to 1	CCC(=O)N1CCC(c2cnc(N)c(-c3nnc(-c4ccc(CNC)cc4)o3)n2)CC1 [Compound I-353, 1-(4-(5-Amino-6-(5-(4-((methylamino)methyl)phenyl)-1,3,4-oxadiazol-2-yl)pyrazin-2-yl)piperidin-1-yl)propan-1-one]
0.1 to 1	CCS(=O)(=O)NC1CC[C@H]2CN(c3cnc(N)c(-c4nnc(-c5ccc(CNC)cc5)o4)n3)C[C@@H]12 (stereo partly drawn) [Compound I-354, N-((3aS,6aR)-2-(5-Amino-6-(5-(4-((methylamino)methyl)phenyl)-1,3,4-oxadiazol-2-yl)pyrazin-2-yl)octahydrocyclopenta[c]pyrrol-4-yl)ethanesulfonamide]
0.1 to 1	CCC(=O)N1CC=C(c2cnc(N)c(-c3nnc(-c4ccc(CNC)cc4)o3)n2)CC1 [Compound I-335, 1-[4-[5-Amino-6-[5-[4-(methylaminomethyl)phenyl]-1,3,4-oxadiazol-2-yl]pyrazin-2-yl]-3,6-dihydro-2H-pyridin-1-yl]propan-1-one]
1 to 10	Nc1ncc(N2CCN(C(=O)OCc3ccccc3)CC2)nc1-c1nnc(-c2ccccc2)o1 [Compound I-255, benzyl 4-(5-amino-6-(5-phenyl-1,3,4-oxadiazol-2-yl)pyrazin-2-yl)piperazine-1-carboxylate]
0.1 to 1	CNCc1ccc(-c2nnc(-c3nc(N4CCC[C@H]4CO)cnc3N)o2)cc1 [Compound I-352, [(2S)-1-[5-Amino-6-[5-[4-(methylaminomethyl)phenyl]-1,3,4-oxadiazol-2-yl]pyrazin-2-yl]pyrrolidin-2-yl]methanol]
1 to 10	COC(=O)N1CCN(c2cnc(N)c(C(=O)Nc3ccccn3)n2)CC1 [Compound I-242, methyl 4-(5-amino-6-(pyridin-2-ylcarbamoyl)pyrazin-2-yl)piperazine-1-carboxylate]
1 to 10	Nc1ncc(N2CCN(C(=O)COc3ccccc3)CC2)nc1-c1nc2ccccc2[nH]1 [Compound I-273, 1-(4-(5-amino-6-(1H-benzo[d]imidazol-2-yl)pyrazin-2-yl)piperazin-1-yl)-2-phenoxyethanone]
0.1 to 1	CNCc1ccc(-c2nnc(-c3nc(N4CCC5(C4)CN(S(=O)(=O)C(C)C)C5)cnc3N)o2)cc1 [Compound I-368, 5-(2-(Isopropylsulfonyl)-2,6-diazaspiro[3.4]octan-6-yl)-3-(5-(4-((methylamino)methyl)phenyl)-1,3,4-oxadiazol-2-yl)pyrazin-2-amine]

Target: T2, intracellular ATR (Homo sapiens, UniProt Q13535)
T2 construct: endogenous in cells; host or cells: HT29
T2 sequence (Q13535 whole entry): as above
T2 sequence (Q8WXE1 whole entry partner): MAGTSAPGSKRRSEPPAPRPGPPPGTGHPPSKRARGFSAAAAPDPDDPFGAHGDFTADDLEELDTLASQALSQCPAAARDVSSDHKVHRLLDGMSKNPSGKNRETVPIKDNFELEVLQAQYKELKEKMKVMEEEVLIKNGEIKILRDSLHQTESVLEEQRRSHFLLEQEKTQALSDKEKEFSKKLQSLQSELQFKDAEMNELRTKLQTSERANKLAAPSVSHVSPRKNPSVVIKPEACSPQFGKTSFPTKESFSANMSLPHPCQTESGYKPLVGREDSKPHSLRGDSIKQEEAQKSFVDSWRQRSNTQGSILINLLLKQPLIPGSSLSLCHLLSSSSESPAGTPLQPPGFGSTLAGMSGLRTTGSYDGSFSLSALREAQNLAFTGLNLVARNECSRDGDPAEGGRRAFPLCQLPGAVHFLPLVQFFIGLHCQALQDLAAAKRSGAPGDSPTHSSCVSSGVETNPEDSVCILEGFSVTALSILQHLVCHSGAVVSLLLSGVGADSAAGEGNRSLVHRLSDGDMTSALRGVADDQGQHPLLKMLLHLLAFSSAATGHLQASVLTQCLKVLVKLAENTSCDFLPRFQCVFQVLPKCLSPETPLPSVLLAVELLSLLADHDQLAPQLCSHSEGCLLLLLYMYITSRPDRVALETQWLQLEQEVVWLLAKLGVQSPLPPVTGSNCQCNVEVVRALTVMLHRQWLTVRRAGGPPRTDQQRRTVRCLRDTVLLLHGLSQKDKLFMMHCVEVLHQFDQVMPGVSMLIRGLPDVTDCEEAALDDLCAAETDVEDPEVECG
Experiment: Cellular ATR Inhibition Assay (H2AX phosphorylation, immunofluorescence microscopy)
Assay type: cell-based
Settings: HT29 cells, 2 mM hydroxyurea, percentage of phosphorylated H2AX Ser139-positive nuclei
Method: Compounds were screened for their ability to inhibit intracellular ATR using an immunofluorescence microscopy assay to detect phosphorylation of the ATR substrate histone H2AX in hydroxyurea treated cells. HT29 cells were plated at 14,000 cells per well in 96-well black imaging plates (BD 353219) in McCoy's 5A media (Sigma M8403) supplemented with 10% foetal bovine serum (JRH Biosciences 12003), Penicillin/Streptomycin solution diluted 1:100 (Sigma P7539), and 2 mM L-glumtamine (Sigma G7513), and allowed to adhere overnight at 37° C. in 5% CO2. Compounds were then added to the cell media from a final concentration of 25 μM in 3-fold serial dilutions and the cells were incubated at 37° C. in 5% CO2. After 15 min, hydroxyurea (Sigma H8627) was added to a final concentration of 2 mM.
After 45 min of treatment with hydroxyurea, the cells were washed in PBS, fixed for 10 min in 4% formaldehyde diluted in PBS (Polysciences Inc 18814), washed in 0.2% Tween-20 in PBS (wash buffer), and permeabilised for 10 min in 0.5% Triton X-100 in PBS, all at room temperature. The cells were then washed once in wash buffer and blocked for 30 min at room temperature in 10% goat serum (Sigma G9023) diluted in wash buffer (block buffer). To detect H2AX phosphorylation levels, the cells were then incubated for 1 h at room temperature in primary antibody (mouse monoclonal anti-phosphorylated histone H2AX Ser139 antibody; Upstate 05-636) diluted 1:250 in block buffer. The cells were then washed five times in wash buffer before incubation for 1 h at room temperature in the dark in a mixture of secondary antibody (goat anti-mouse Alexa Fluor 488 conjugated antibody; Invitrogen A11029) and Hoechst stain (Invitrogen H3570); diluted 1:500 and 1:5000, respectively, in wash buffer. The cells were then washed five times in wash buffer and finally 100 ul PBS was added to each well before imaging.
Cells were imaged for Alexa Fluor 488 and Hoechst intensity using the BD Pathway 855 Bioimager and Attovision software (BD Biosciences, Version 1.6/855) to quantify phosphorylated H2AX Ser139 and DNA staining, respectively. The percentage of phosphorylated H2AX-positive nuclei in a montage of 9 images at 20× magnification was then calculated for each well using BD Image Data Explorer software (BD Biosciences Version 2.2.15). Phosphorylated H2AX-positive nuclei were defined as Hoechst-positive regions of interest containing Alexa Fluor 488 intensity at 1.75-fold the average Alexa Fluor 488 intensity in cells not treated with hydroxyurea. The percentage of H2AX positive nuclei was finally plotted against concentration for each compound and IC50s for intracellular ATR inhibition were determined using Prism software (GraphPad Prism version 3.0cx for Macintosh, GraphPad Software, San Diego Calif., USA).

SMILES	IC50 [µM]
CCS(=O)(=O)N1CCN(c2cnc(N)c(-c3nc4ccccc4[nH]3)n2)CC1 [Compound I-16, 3-(1H-benzo[d]imidazol-2-yl)-5-(4-(ethylsulfonyl)piperazin-1-yl)pyrazin-2-amine]	10 to 30
